Experimental data as given in US7741479B2, “Urea inhibitors of MAP kinases” (Locus Pharmaceuticals, Inc., priority 2004, dated 2010).

What follows are compounds tested against T1, p38 (Homo sapiens, UniProt Q16539) (assay: Protein Kinase Assay (33P incorporation from γ-[33P]ATP into GST-ATF-2 substrate)). Settings: compound at 3 μM (noted beside the value in Table 1); read-out: Protein Kinase (% Inhibition).
T1 construct: made in house
T1 sequence (Q16539 whole entry): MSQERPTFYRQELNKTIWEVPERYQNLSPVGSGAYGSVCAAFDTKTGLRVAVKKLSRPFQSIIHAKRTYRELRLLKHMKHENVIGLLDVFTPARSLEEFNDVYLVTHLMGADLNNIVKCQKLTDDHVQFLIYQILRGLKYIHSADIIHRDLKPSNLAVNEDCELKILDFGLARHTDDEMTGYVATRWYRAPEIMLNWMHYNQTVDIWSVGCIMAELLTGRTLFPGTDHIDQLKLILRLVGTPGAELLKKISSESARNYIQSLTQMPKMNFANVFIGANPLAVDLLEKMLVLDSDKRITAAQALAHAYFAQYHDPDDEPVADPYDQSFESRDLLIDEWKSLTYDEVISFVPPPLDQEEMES
Assay type: biochemical
Procedure: Human non-activated p38 kinase (MW=43 kDa) was purified according to the protocol described herein. Chemicals were purchased from Calbiochem. Fluorescence characterizations were conducted using a Cary Eclipse (Varian Analytical Instruments, Walnut Creek, Calif.). Research-grade CM5 sensor chips and coupling reagents (N-ethyl-N′-dimethylaminopropylcarbodiimide (EDC) N-hydroxysuccinimide (NHS), and 1 M ethanolamine HCl, pH 8.5) were purchased from Biacore AB (Uppsala, Sweden). The biosensor analyses were conducted using a Biacore 3000 SPR instrument. The kinetic analyses were carried on a Molecular Devices spectrophotometer (Molecular Devices Corporation, CA, USA).
Protein Kinase Assay. The protein kinase activity of p38 was determined by measuring the incorporation of ^33P from γ-[^33P]ATP into the GST-ATF-2 substrate, amino acids 19-96 (Upstate, NY USA). […] Compounds were preincubated with 10 nM p38 for 20 min at 30° C.; the reactions were initiated by the addition of GST-ATF2 and ATP and incubated for 70 min at 30° C. before being stopped by the addition of 10 μL of 600 mM phosphoric acid. The phosphorylated substrate was captured on phosphocellulose 96-well plate (Millipore MAPHNOB 10), washed with 100 mM phosphoric acid, and counted in a BeckmenCoulter LS6500 liquid scintillation counter.
CC(C)(C)c1cc(C(=O)N2CC[S@SP2](=O)(=O)CC2)c(NC(=O)Nc2ccc(Br)c3ccccc23)s1 [Example 40, 1-(4-Bromonaphthalen-1-yl)-3-[5-tert-butyl-3-(1,1-dioxo-1λ^6-thiomorpholine-4-carbonyl)thiophen-2-yl]urea] gave an inhibition at 3 µM of 76 to 100%. Work on CC(C)(C)c1cc(C(=O)N2CCNS(=O)(=O)CC2)c(NC(=O)Nc2ccc3ccccc3c2)s1 [Example 38, 1-[5-tert-butyl-3-(1,1-dioxo-1λ^6-[1,2,5]thiadiazepane-5-carbonyl)thiophen-2-yl]-3-naphthalen-2-ylurea] yielded an inhibition at 3 µM of 76 to 100%.

Same assay, conditions: compound at 3 μM; read-out: Protein Kinase (% Inhibition at 3 μM)
With CC(C)(C)c1cc(C(=O)N2CCNS(=O)(=O)CC2)c(NC(=O)Nc2ccc(C#N)c3ccccc23)s1 [Example 56, 1-[5-tert-butyl-3-(1,1-dioxo-1λ^6-[1,2,5]thiadiazepane-5-carbonyl)thiophen-2-yl]-3-(4-cyanonaphthalen-1-yl)urea] the inhibition at 3 µM was 76 to 100%. CC(C)(C)c1cc(C(=O)N2CCNC(=O)CC2)c(NC(=O)Nc2ccc(C#N)c3ccccc23)s1 [Example 55, 1-[5-tert-butyl-3-(5-oxo-[1,4]diazepane-1-carbonyl)thiophen-2-yl]-3-(4-cyanonaphthyl)urea] gave an inhibition at 3 µM of 76 to 100%. For CC(C)(C)c1cc(C(=O)N2CCNC(=O)C2)c(NC(=O)Nc2ccc(C#N)c3ccccc23)s1 [Example 57, 1-[5-tert-butyl-3-(3-oxopiperazine-1-carbonyl)thiophen-2-yl]-3-(4-cyano-naphthalen-1-yl)urea], the inhibition at 3 µM was 76 to 100%. For CC(C)(C)c1cc(NC(=O)Nc2cccc3ccccc23)c(C(=O)N2CCNC(=O)CC2)s1 [Example 50, 1-[5-tert-butyl-2-(5-oxo-[1,4]diazepane-1-carbonyl)thiophen-3-yl]-3-naphthalen-1-ylurea], the inhibition at 3 µM was 76 to 100%. With Cc1cc(NC(=O)Nc2sc(C(C)(C)C)cc2C(=O)N2CCS(=O)(=O)CC2)cc(C)n1 [Example 70, 1-[5-tert-butyl-3-(1,1-dioxo-1λ^6-thiomorpholine-4-carbonyl)thiophen-2-yl]-3-(2,6-dimethylpyridin-4-yl)urea] the inhibition at 3 µM was 26 to 50%. Compound CC(C)(C)c1cc(C(=O)N2CCS(=O)(=O)CC2)c(NC(=O)Nc2ccc(Cl)c(Cl)c2)s1 [Example 63, 1-[5-tert-butyl-3-(1,1-dioxo-1λ^6-thiomorpholine-4-carbonyl)thiophen-2-yl]-3-(3,4-dichlorophenyl)urea] has an inhibition at 3 µM of 76 to 100%. For CC(C)(C)c1cc(NC(=O)Nc2cccc3ccccc23)c(C(=O)N2CCNS(=O)(=O)CC2)s1 [Example 51, 1-[5-tert-butyl-2-(1,1-dioxo-1λ^6-[1,2,5]thiadiazepane-5-carbonyl)thiophen-3-yl]-3-naphthalen-1-ylurea], the inhibition at 3 µM was 76 to 100%. CC(C)(C)c1cc(C(=O)N2CCNS(=O)(=O)CC2)c(NC(=O)Nc2ccc3c(c2)OCO3)s1 [Example 93, 1-Benzo[1,3]dioxol-5-yl-3-[5-tert-butyl-3-(1,1-dioxo-1λ^6-[1,2,5]thiadiazepane-5-carbonyl)thiophen-2-yl]urea] was tested, and the inhibition at 3 µM was 76 to 100%. Work on CC(C)(C)c1cc(C(=O)N2CCS(=O)(=O)CC2)c(NC(=O)Nc2cnc(O)c3ccccc23)s1 [Example 85, 1-[5-tert-butyl-3-(1,1-dioxo-1λ^6-thiomorpholine-4-carbonyl)thiophen-2-yl]-3-(1-hydroxyisoquinolin-4-yl)urea] yielded an inhibition at 3 µM of 26 to 50%. In the case of CC(C)(C)c1cc(C(=O)N2CCNC(=O)CC2)c(NC(=O)Nc2cccc(Cl)c2Cl)s1 [Example 53, 1-[5-tert-butyl-3-(5-oxo-[1,4]diazepane-1-carbonyl)thiophen-2-yl]-3-(2,3-dichlorophenyl)urea], the inhibition at 3 µM is reported as 76 to 100%. For CC(C)(C)c1cc(C(=O)N2CCS(=O)(=O)CC2)c(NC(=O)Nc2ccc(C#N)c(Cl)c2)s1 [Example 64, 1-[5-tert-butyl-3-(1,1-dioxo-1λ^6-thiomorpholine-4-carbonyl)thiophen-2-yl]-3-(3-chloro-4-cyanophenyl)urea], the inhibition at 3 µM was 51 to 75%. For CC1C(=O)NCCN1C(=O)c1cc(C(C)(C)C)sc1NC(=O)Nc1ccc(Cl)cc1 (stereo not shown) [Example 78, 1-[5-tert-butyl-3-(2-methyl-3-oxopiperazine-1-carbonyl)thiophen-2-yl]-3-(4-chlorophenyl)urea], the inhibition at 3 µM was 76 to 100%.

Same assay, conditions: compound at 10 μM
CC(C)(C)c1cc(NC(=O)Nc2ccc(Cl)cc2)c(C(=O)N2CCS(=O)(=O)CC2)s1 [Example 10, 1-[5-tert-butyl-2-(1,1-dioxo-1λ^6-thiomorpholine-4-carbonyl)thiophen-3-yl]-3-(4-chlorophenyl)urea] gave an inhibition at 10 µM of 76 to 100%. CC(C)(C)c1cc(C(=O)N2CCS(=O)(=O)CC2)c(NC(=O)Nc2ccc(Oc3ccccc3)cc2)s1 [Example 28, 1-[5-tert-butyl-3-(1,1-dioxo-1λ^6-thiomorpholine-4-carbonyl)thiophen-2-yl]-3-(4-phenoxyphenyl)urea] was tested, and the inhibition at 10 µM was 0 to 25%. With CC(C)(C)c1nc(C(=O)N2CCS(=O)(=O)CC2)c(NC(=O)Nc2ccc3ccccc3c2)s1 [Example 26, 1-[2-tert-butyl-4-(1,1-dioxo-1λ^6-thiomorpholine-4-carbonyl)thiazol-5-yl]-3-naphthalen-2-ylurea] the inhibition at 10 µM was 51 to 75%. CC(C)(C)c1cc(NC(=O)Nc2cccc3ccccc23)c(C(=O)N2CCS(=O)(=O)CC2)s1 [Example 11, 1-[5-tert-butyl-2-(1,1-dioxo-1λ^6-thiomorpholine-4-carbonyl)thiophen-3-yl]-3-naphthalen-1-ylurea] gave an inhibition at 10 µM of 76 to 100%. For CC(C)(C)c1cc(C(=O)N2CCS(=O)(=O)CC2)c(NC(=O)Nc2cccc3cn[nH]c23)s1 [Example 32, 1-[5-tert-butyl-3-(1,1-dioxo-1λ^6-thiomorpholine-4-carbonyl)thiophen-2-yl]-3-(1H-indazol-7-yl)urea], the inhibition at 10 µM was 26 to 50%. CC(C)(C)c1nc(C(=O)N2CCS(=O)(=O)CC2)c(NC(=O)Nc2cccc3ccccc23)s1 [Example 25, 1-[2-tert-butyl-4-(1,1-dioxo-1λ^6-thiomorpholine-4-carbonyl)thiazol-5-yl]-3-naphthalen-1-ylurea] gave an inhibition at 10 µM of 76 to 100%. CC(C)(C)c1cc(NC(=O)Nc2cccc3ccccc23)n(CC(=O)N2CCS(=O)(=O)CC2)n1 [Example 9, 1-{5-tert-butyl-2-[2-(1,1-dioxo-1λ^6-thiomorpholin-4-yl)-2-oxoethyl]-2H-pyrazol-3-yl}-3-naphthalen-1-ylurea] gave an inhibition at 10 µM of 51 to 75%. For CC(C)(C)c1cc(NC(=O)Nc2ccc3ccccc3c2)c(C(=O)N2CCS(=O)(=O)CC2)s1 [Example 12, 1-[5-tert-butyl-2-(1,1-dioxo-1λ^6-thiomorpholine-4-carbonyl)thiophen-3-yl]-3-naphthalen-2-ylurea], the inhibition at 10 µM was 76 to 100%. CC(C)(C)c1cc(CN2CCS(=O)(=O)CC2)c(NC(=O)Nc2cccc3ccccc23)s1 [Example 5, 1-[5-tert-butyl-3-(1,1-dioxo-1λ^6-thiomorpholin-4-ylmethyl)thiophen-2-yl]-3-naphthalen-1-ylurea] was tested, and the inhibition at 10 µM was 76 to 100%. In the case of CC(C)(C)c1cc(C(=O)N2CCNC(=O)CC2)c(NC(=O)Nc2ccc3ccccc3c2)s1 [Example 44, 1-[5-tert-butyl-3-(5-oxo[1,4]diazepane-1-carbonyl)thiophen-2-yl]-3-naphthalen-2-ylurea], the inhibition at 10 µM is reported as 76 to 100%.

Same assay, conditions: same procedure at 0.5 μM
With CC(C)(C)c1cc(C(=O)Nc2ccc3nn[nH]c3c2)c(NC(=O)Nc2cccc(Cl)c2Cl)s1 [Example 133, 5-tert-Butyl-2-[3-(2,3-dichlorophenyl)ureido]thiophene-3-carboxylic acid (3H-benzotriazol-5-yl)amide] the inhibition at 0.5 µM was 76 to 100%.
